In US8697652B2, “Cosmetic use of at least the natural tetrapeptide Ac-Ser-Asp-Lys-Pro or one of its analogs as a skin restructuring agent” (Centre National de la Recherche Scientifique (CNRS), priority 2004, dated 2014):
Ends that are not written are not given here.

How the values were obtained:
Format in all cases: cell-based
Keratin 14 (CK14) = experiment: Immunolabelling of keratin 14 in human skin explants
Method: (§1) This study was conducted on thirty six human skin explants obtained from breast plastic surgery.
(§2) All the explants were maintained in a state of survival in a culture medium for eight days. AcSDKP at a concentration of 10^−5 M or 10^−8 M in physiological serum was applied to the explants by topical route every day for one week. On days 2, 4, 6 and 8, three explants from each batch (control, +AcSDKP 10^−5 M+ AcSDKP 10^−8 M) were removed and prepared for histological studies. General morphology was examined and an evaluation of the expression of basal keratin (CK14), undifferentiated keratin (CK19), collagen III, collagen IV, fibronectin and glycosaminoglycan without an acid group was performed.

Glycosaminoglycan (GAGs) = experiment: P.A.S. Alcian blue staining of GAGs without acid groups in human skin explants
Method: as §1, §2
This effect, clearly visible at D6 and D8, is characterised by a PAS positive increase in the number of fibroblasts in the papillary dermis, especially in the band situated along the dermo-epidermal junction and by increased levels of GAGs in these fibroblasts.

[1] = test system: Basal Membrane Collagen (Type IV); experiment: Immunolabelling of collagen IV in human skin explants
Method: as §1, §2

[2] = test system: Dermal Collagen (Type III); experiment: Immunolabelling of collagen III in human skin explants
Method: as §1, §2

Keratin 19 (CK19) = experiment: Immunolabelling of keratin 19 in human skin explants
Method: as §1, §2

human skin explants = experiment: General morphology (Masson Trichrome) of human skin explants treated topically with AcSDKP
Method: as §1, §2
This is seen by an increased number of live cell bases.

fibronectin = experiment: Immunolabelling of fibronectin in human skin explants
Method: as §1, §2

[3] = AcSDKP 10^-5 M compared with 10^-8 M

Acetyl-Ser-Asp-Lys-Pro (Ac-SDKP) [AcSDKP, natural tetrapeptide isolated from calf foetus bone marrow or obtained by peptide synthesis]
CK14 restructuring effect (Keratin 14 (CK14); [3]): greater
CK14 levels (immunolabelling) (Keratin 14 (CK14); basal and superbasal position, as of D4 of treatment): gradual increase in the levels of this protein
production of CK14 in treated skin (summary) (Keratin 14 (CK14); summary statement): stimulates the production
GAG activity (Glycosaminoglycan (GAGs); [3]): higher level of activity
levels of GAGs without acid groups (Glycosaminoglycan (GAGs); AcSDKP 10^-5 M or 10^-8 M, clearly visible at D6 and D8): significant increase in the levels of these compounds
increase in collagen IV levels [1, 3]: higher
increase in collagen IV levels in the basal membrane along the dermo-epidermal junction ([1]; AcSDKP 10^-5 M or 10^-8 M, D6 and D8, compared with type III collagen): less pronounced than that for type III collagen
expression of collagen IV in treated skin (summary) ([1]; summary statement): stimulatory effect
collagen III expression ([2]; AcSDKP 10^-5 M, D8): very clear overexpression of collagen III in the papillary and reticular dermis
collagen III levels ([2]; AcSDKP 10^-5 M, six days of treatment): very marked increase in collagen III levels in the papillary dermis along the dermo-epidermal junction
collagen III in the remainder of the papillary dermis and reticular dermis ([2]; AcSDKP 10^-8 M, D6): more present
collagen III expression along the dermo-epidermal junction ([2]; AcSDKP 10^-8 M, D6, compared with 10^-5 M): less pronounced
level of collagen III ([2]; AcSDKP 10^-8 M, D8): increases along the dermo-epidermal junction and forms a thicker collagen band
expression of collagen III in treated skin (summary) ([2]; summary statement): stimulatory effect
CK19 effect (Keratin 19 (CK19); [3]): less marked effect
CK19 expression (immunolabelling) (Keratin 19 (CK19); AcSDKP 10^-5 M or 10^-8 M, as of D6 of treatment): overexpression of the skin's dermal attachments
production of CK19 in treated skin (summary) (Keratin 19 (CK19); summary statement): stimulates the production
increase in epidermal thickness (human skin explants; [3]): greater
epidermal structure (general morphology) (human skin explants; AcSDKP 10^-5 M or 10^-8 M, topical daily, as of D6 of treatment): stimulation of the epidermal structure
overall effect on epidermis and dermis (conclusion) (human skin explants; conclusion of explant study): restructuring of the epidermis and dermis
fibronectin activity (fibronectin; [3]): greater activity
fibronectin network (fibronectin; area treated with AcSDKP): denser and has thicker fibres
fibronectin expression (immunolabelling, summary) (fibronectin; treated skin): overexpression of this protein along a dermo-epidermal junction as well as in the papillary and reticular dermis
